# Earlier results in patent US20240299293A1 (priority 2020, published 2024).
# System: human coronaviruses, including CoV-229E and SARS-COV, and animal coronaviruses
# Details: for elimination of coronaviruses: hexachlorophene, 2% glutaraldehyde, 1% povidone-iodine, benzalkonium chloride, chlorhexidine
Molecule,elimination of coronaviruses,also measured
[H]/N=C(\N/C(=N/[H])NCCCCCCNC(=N)NC(=N)Nc1ccc(Cl)cc1)Nc1ccc(Cl)cc1 [chlorhexidine],only if 70% ethanol is present in the solution,
CCO [ethanol],,"reduction of viability (70% ethanol, viruses in suspension and dried on surfaces, within seconds): greater than 3 log"
O=CCCCC=O [glutaraldehyde],satisfactory elimination rates,
Oc1c(Cl)cc(Cl)c(Cl)c1Cc1c(O)c(Cl)cc(Cl)c1Cl [hexachlorophene],satisfactory elimination rates,
OCl [sodium hypochlorite],,susceptibility of coronaviruses (6% sodium hypochlorite solutions): variable
benzalkonium chloride,only if 70% ethanol is present in the solution,
povidone-iodine,satisfactory elimination rates,
